Data taken from the supplement of paper PMC10307832.

Key:
Assay in all cases: relative viability (nuclei count vs DMSO), 5 days (fraction); higher = more cells survive
Palbociclib + Trametinib = compound: CC(=O)c1c(C)c2cnc(Nc3ccc(N4CCNCC4)cn3)nc2n(C2CCCC2)c1=O [Palbociclib] + CC(=O)Nc1cccc(-n2c(=O)n(C3CC3)c(=O)c3c(Nc4ccc(I)cc4F)n(C)c(=O)c(C)c32)c1 [Trametinib] (partner 0.02 µM)
In short: (§1)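 Nuclei were stained with Hoechst during a one-step fixation (final 0.05% Triton X-100, 1% formaldehyde, 1 ug/ml Hoechst) carried out 5 days after dosing, then counted on 4× images. The cells, lung cancer lines in 1536-well plates, had been dosed by pin tool the day after seeding with one drug alone or a fixed anchor-drug dose plus five library-drug doses (not always all listed) in √10 steps. Relative viability is the nuclei count in treated wells divided by that in vehicle wells, and each value is the median of duplicate plates.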

Palbociclib + Navitoclax = compound: CC(=O)c1c(C)c2cnc(Nc3ccc(N4CCNCC4)cn3)nc2n(C2CCCC2)c1=O [Palbociclib] + CC1(C)CCC(c2ccc(Cl)cc2)=C(CN2CCN(c3ccc(C(=O)NS(=O)(=O)c4ccc(N[C@H](CCN5CCOCC5)CSc5ccccc5)c(S(=O)(=O)C(F)(F)F)c4)cc3)CC2)C1 [Navitoclax] (partner 0.5 µM)
In short: as §1

Palbociclib + Luminespib = compound: CC(=O)c1c(C)c2cnc(Nc3ccc(N4CCNCC4)cn3)nc2n(C2CCCC2)c1=O [Palbociclib] + CCNC(=O)c1noc(-c2cc(C(C)C)c(O)cc2O)c1-c1ccc(CN2CCOCC2)cc1 [Luminespib] (partner 0.01 µM)
In short: as §1

Palbociclib + Phenformin = compound: CC(=O)c1c(C)c2cnc(Nc3ccc(N4CCNCC4)cn3)nc2n(C2CCCC2)c1=O [Palbociclib] + N=C(N)NC(=N)NCCc1ccccc1 [Phenformin] (partner 250 µM)
In short: as §1

Cell Line	relative viability (Palbociclib + Trametinib; first compound 0.01 µM)	relative viability (Palbociclib + Trametinib; first compound 0.03162 µM)	relative viability (Palbociclib + Trametinib; first compound 0.1 µM)	relative viability (Palbociclib + Trametinib; first compound 0.3162 µM)	relative viability (Palbociclib + Trametinib; first compound 1 µM)	relative viability (Palbociclib + Navitoclax; first compound 0.01 µM)	relative viability (Palbociclib + Navitoclax; first compound 0.03162 µM)	relative viability (Palbociclib + Navitoclax; first compound 0.1 µM)	relative viability (Palbociclib + Navitoclax; first compound 0.3162 µM)	relative viability (Palbociclib + Navitoclax; first compound 1 µM)	relative viability (Palbociclib + Luminespib; first compound 0.01 µM)	relative viability (Palbociclib + Luminespib; first compound 0.03162 µM)	relative viability (Palbociclib + Luminespib; first compound 0.1 µM)	relative viability (Palbociclib + Luminespib; first compound 0.3162 µM)	relative viability (Palbociclib + Luminespib; first compound 1 µM)	relative viability (Palbociclib + Phenformin; first compound 0.01 µM)	relative viability (Palbociclib + Phenformin; first compound 0.03162 µM)	relative viability (Palbociclib + Phenformin; first compound 0.1 µM)	relative viability (Palbociclib + Phenformin; first compound 0.3162 µM)	relative viability (Palbociclib + Phenformin; first compound 1 µM)
NCI-H2126	0.575	0.528	0.518	0.509	0.431	0.861	0.848	0.743	0.745	0.561	0.869	0.79	0.564	0.535	0.369	0.494	0.418	0.381	0.413	0.392
NCI-H1944	0.399	0.389	0.396	0.37	0.342	1.03	1.06	0.878	1.03	0.987	0.683	0.742	0.626	0.666	0.516	0.206	0.172	0.182	0.174	0.165
NCI-H647	0.502	0.305	0.428	0.346	0.272	1.33	0.92	0.759	0.93	0.738	0.0934	0.13	0.137	0.209	0.253	0.639	0.382	0.379	0.464	0.257
NCI-H1395	1.08	0.884	0.816	0.854	0.731	1.22	1.17	0.924	0.943	0.656	0.661	0.561	0.631	0.668	0.587	0.408	0.408	0.368	0.412	0.41
LCLC-103H	0.7	0.617	0.686	0.654	0.547	–	–	–	–	–	0.978	0.808	0.848	0.718	0.584	0.33	0.28	0.318	0.248	0.223
EPLC-272H	0.286	–	0.268	0.244	0.25	1.21	–	1.06	1.06	0.833	0.225	–	0.346	0.518	0.379	0.316	–	0.265	0.291	0.198
EKVX	0.3	–	0.247	0.251	0.244	1.11	0.826	0.755	0.764	0.476	0.856	0.745	0.919	0.841	0.605	0.23	0.192	0.238	0.245	0.145
NCI-H1915	0.29	–	0.297	0.289	0.245	0.764	0.733	0.771	0.782	0.763	0.807	0.674	0.793	0.71	0.629	0.365	0.308	0.37	0.346	0.323
NCI-H2347	0.295	0.292	0.244	0.249	0.272	0.835	0.751	0.646	0.6	0.533	0.41	–	0.366	0.429	0.453	0.612	–	0.285	0.26	0.182
